Values quoted from earlier work, collected in patent US20250340540A1, “Crystal Forms Of HS378 And Preparation Method Therefor” (priority 2022, published 2025).

Test system: novel coronavirus
Settings: mouse, in vivo; cited from earlier work

In the case of CC(C)(C)[C@H](NC(=O)C(F)(F)F)C(=O)N1C[C@H]2[C@@H]([C@H]1C(=O)N[C@H](C#N)C[C@@H]1CCNC1=O)C2(C)C [HS378, (1R, 2S, 5S)-N-{(1S)-1-cyano-2-[(3S)-2-oxopyrrolidin-3-yl]-ethyl}-6,6-dimethyl-3-[3-methyl-N-(trifluoroacetyl)-L-valyl]-3-azabicyclo [3.1.0]hexane-2-carboxamide], the Oral activity is listed as “Oral activity was demonstrated”.
